This is an account of results in article PMC8512147, “Multifunctional Small Molecules as Potential Anti-Alzheimer’s Disease Agents” (Molecules, 2021).

The nature of this assay: Radical scavenging activity, DPPH method. Format: biochemical. The following applies: MeOH, 30 min, r.t., mean ± SD of 3 independent experiments. From the text: Commercial ferulic acid (FA) and all the newly synthesized compounds 1a–e were studied for their radical scavenging activity, following the protocol previously reported. The activity of each compound is expressed as EC50 and is related to its interaction with the free stable radical 2,2-diphenyl-1-picrylhydrazyl (DPPH•).
For the physicochemical and biological studies, analytical grade reagents and solvents were supplied by Sigma-Aldrich (St. Louis, MO, USA), Fluka (Buchs, Switzerland) and Acros (Geel, Belgium). They were used as received without any purification. The antioxidant activity assay was performed in a quartz cell of 1 cm path length with a Perkin-Elmer Lambda 35 UV–Vis spectrophotometer equipped with a temperature programmer PTP1+1 Peltier System (T = 25.0 ± 0.1 °C).
Compounds were evaluated for their radical scavenging activity by the Blois method using DPPH (2,2-diphenyl-1-picrylhydrazyl), a stable free-radical. It absorbs in methanol solution at 517–520 nm and it is a scavenger for other radicals converting itself in the reduced form DPPHH. The assay consists of preparing solutions of increasing concentration of each compound starting from a stock solution (2–3 × 10^−4 M), adding to them 2.5 mL DPPH (0.002% in MeOH, 50–100 µM) and the necessary volume of MeOH to reach the final volume 3.5 mL for each sample. The control sample was made up of DPPH and MeOH. Solutions were protected from light at r.t. for 30 min and then absorbance was measured at 517 nm with a Perkin Elmer Lambda 35 UV–Vis spectrophotometer, using methanolic solution as the blank in the other cell. All the studied compounds have good solubility in MeOH, so their solutions could be prepared. The assay was repeated three times for all compounds and the antioxidant activity, expressed as EC50, was calculated by Equation (1). %AA = ((ADPPH − Asample)/ADPPH) × 100,(1)
Background: Loss of DPPH colour is used to gauge radical scavenging.

The term EC50 denotes the midpoint of the concentration-response curve. `COc1cc(/C=C/C(=O)NOCc2ccccc2OC)ccc1O` [Compound 1a, (E)-3-(4-hydroxy-3-methoxyphenyl)-N-((2-methoxybenzyl)oxy)acrylamide] gave an EC50 of 34 ± 1 µM.

As for `COc1cc(/C=C/C(=O)NOCc2cccc(Cl)c2)ccc1O` [Compound 1d, (E)-N-((3-chlorobenzyl)oxy)-3-(4-hydroxy-3-methoxyphenyl)acrylamide], a half-maximal effect (EC50) was put at 33 ± 1 µM.
